# Data: US10537558B2 (Bantam Pharmaceutical, LLC, priority 2015, dated 2020)
# pEC50: −log10 of the molar value.
# Tested on: BJAB cells
# Assay: BJAB cell proliferation (Cell Titer Glo)
# Assay type: cell-based
# Conditions: not given
# Summary of the method: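 BJAB cells exposed to serially diluted compounds (0.1% DMSO final) for about 72 h at 37 °C. Proliferation read by Cell Titer Glo luminescence as percent of untreated controls; EC50 from non-linear regression of dose-response data.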
row,Structure (SMILES),EC50
1,"Cc1nn(-c2nc(-c3ccc(Cl)c(Cl)c3)c(SC(C)C)s2)c(C(=O)O)c1-c1cccc(F)c1 [Compound 151, 1-(4-(3,4-dichlorophenyl)-5-(isopropylthio)thiazol-2-yl)-4-(3-fluorophenyl)-3-methyl-1H-pyrazole-5-carboxylic Acid]","A, B"

# Same assay, conditions: Homo sapiens, read-out: EC50
row,Structure (SMILES),pEC50
1,"Cc1nn(-c2nc(-c3ccc(Cl)c(Cl)c3)c(SC(C)C)s2)c(C(=O)O)c1-c1ccc(N)cc1 [Compound 123, 4-(4-aminophenyl)-1-(4-(3,4-dichlorophenyl)-5-(isopropylthio)thiazol-2-yl)-3-methyl-1H-pyrazole-5-carboxylic acid]",4.30 to 4.60
2,"Cc1nn(-c2nc(-c3ccc(Cl)c(Cl)c3)c(SC(C)C)s2)c(C(=O)O)c1-c1ccc(NS(C)(=O)=O)cc1 [Compound 124, 1-(4-(3,4-dichlorophenyl)-5-(isopropylthio)thiazol-2-yl)-3-methyl-4-(4-(methylsulfonamido)phenyl)-1H-pyrazole-5-carboxylic acid]",< 4.30
3,"Cc1nn(-c2nc(-c3ccc(Cl)c(Cl)c3)c(SC(C)C)s2)c(C(=O)O)c1-c1cccc(NS(C)(=O)=O)c1 [Compound 125, 1-(4-(3,4-dichlorophenyl)-5-(isopropylthio)thiazol-2-yl)-3-methyl-4-(3-(methylsulfonamido)phenyl)-1H-pyrazole-5-carboxylic acid]",< 4.30
4,"COCCn1cc(-c2c(C)nn(-c3nc(-c4ccc(Cl)c(Cl)c4)c(SC(C)C)s3)c2C(=O)O)cn1 [Compound 126, 2-(4-(3,4-dichlorophenyl)-5-(isopropylthio)thiazol-2-yl)-2′-(2-methoxyethyl)-5-methyl-4,4′-bi(2H-pyrazole)-3-carboxylic acid]",4.60 to 5.00
5,"Cc1nn(-c2nc(-c3ccc(Cl)c(Cl)c3)c(SC(C)C)s2)c(C(=O)O)c1-c1cccc2cc[nH]c12 [Compound 127, 1-(4-(3,4-dichlorophenyl)-5-(isopropylthio)thiazol-2-yl)-4-(1H-indol-7-yl)-3-methyl-1H-pyrazole-5-carboxylic acid]",5.00 to 5.30
6,"Cc1nn(-c2nc(-c3ccc(Cl)c(Cl)c3)c(SC(C)C)s2)cc1-c1cccc2cc[nH]c12 [Compound 128, 2-(4-(1H-indol-7-yl)-3-methyl-1H-pyrazol-1-yl)-4-(3,4-dichlorophenyl)-5-(isopropylthio)thiazole]",4.60 to 5.00
7,"CCn1cc(-c2c(C)nn(-c3nc(-c4ccc(Cl)c(Cl)c4)c(SC(C)C)s3)c2C(=O)O)cn1 [Compound 129, 2-(4-(3,4-dichlorophenyl)-5-(isopropylthio)thiazol-2-yl)-2′-ethyl-5-methyl-4,4′-bi(2H-pyrazole)-3-carboxylic Acid]",5.00 to 5.30
8,"COCCNC(=O)c1c(-c2cccc(C)c2)c(C)nn1-c1nc(-c2ccc(Cl)c(Cl)c2)c(SC(C)C)s1 [Compound 130, 1-(4-(3,4-dichlorophenyl)-5-(isopropylthio)thiazol-2-yl)-N-(2-methoxyethyl)-3-methyl-4-m-tolyl-1H-pyrazole-5-carboxamide]",< 4.30
9,"Cc1ccccc1-c1c(C)nn(-c2nc(-c3ccc(Cl)c(Cl)c3)c(SC(C)C)s2)c1C(=O)N1CCC(CN)CC1 [Compound 131, (4-(aminomethyl)piperidin-1-yl)(1-(4-(3,4-dichlorophenyl)-5-(isopropylthio)thiazol-2-yl)-3-methyl-4-o-tolyl-1H-pyrazol-5-yl)methanone]",5.30 to 6.00
10,"COc1cncc(-c2c(C)nn(-c3nc(-c4ccc(Cl)c(Cl)c4)c(SC(C)C)s3)c2C(=O)O)c1 [Compound 132, 1-(4-(3,4-dichlorophenyl)-5-(isopropylthio)thiazol-2-yl)-4-(5-methoxypyridin-3-yl)-3-methyl-1H-pyrazole-5-carboxylic acid]",4.60 to 5.00
11,"Cc1nn(-c2nc(-c3ccc(Cl)c(Cl)c3)c(SC(C)C)s2)c(C(=O)O)c1-c1cnn(CC(C)C)c1 [Compound 133, 2-(4-(3,4-dichlorophenyl)-5-(isopropylthio)thiazol-2-yl)-2′-isobutyl-5-methyl-4,4′-bi(2H-pyrazole)-3-carboxylic acid]",4.60 to 5.00
12,"CNc1cc(-c2c(C)nn(-c3nc(-c4ccc(Cl)c(Cl)c4)c(SC(C)C)s3)c2C(=O)O)ccn1 [Compound 134, 1-(4-(3,4-dichlorophenyl)-5-(isopropylthio)thiazol-2-yl)-3-methyl-4-(2-(methylamino)pyridin-4-yl)-1H-pyrazole-5-carboxylic acid]",4.60 to 5.00
13,"Cc1nn(-c2nc(-c3ccc(Cl)c(Cl)c3)c(SC(C)C)s2)c(C(=O)O)c1-c1cnn(C(=O)N(C)C)c1 [Compound 135, 1-(4-(3,4-dichlorophenyl)-5-(isopropylthio)thiazol-2-yl)-1′-(dimethylcarbamoyl)-3-methyl-1H,1′H-[4,4′-bipyrazole]-5-carboxylic acid]",4.30 to 4.60
14,"Cc1nn(-c2nc(-c3ccc(Cl)c(Cl)c3)c(SC(C)C)s2)c(C(=O)N2CCC(CN)CC2)c1-c1cc(C(F)(F)F)cc(C(F)(F)F)c1 [Compound 136, (4-(aminomethyl)piperidin-1-yl)(4-(3,5-bis(trifluoromethyl)phenyl)-1-(4-(3,4-dichlorophenyl)-5-(isopropylthio)thiazol-2-yl)-3-methyl-1H-pyrazol-5-yl)methanone]",5.30 to 6.00
15,"Cc1nn(-c2nc(-c3ccc(Cl)c(Cl)c3)c(SC(C)C)s2)c(C(=O)N(C)CCN)c1-c1cc(C(F)(F)F)cc(C(F)(F)F)c1 [Compound 137, N-(2-aminoethyl)-4-(3,5-bis(trifluoromethyl)phenyl)-1-(4-(3,4-dichlorophenyl)-5-(isopropylthio)thiazol-2-yl)-N,3-dimethyl-1H-pyrazole-5-carboxamide]",5.30 to 6.00
16,"Cc1nn(-c2nc(-c3ccc(Cl)c(Cl)c3)c(SC(C)C)s2)c(C(=O)N2CC(N)C2)c1-c1cc(C(F)(F)F)cc(C(F)(F)F)c1 [Compound 138, (3-aminoazetidin-1-yl)(4-(3,5-bis(trifluoromethyl)phenyl)-1-(4-(3,4-dichlorophenyl)-5-(isopropylthio)thiazol-2-yl)-3-methyl-1H-pyrazol-5-yl)methanone]",4.60 to 5.00
17,"Cc1nn(-c2nc(-c3ccc(Cl)c(Cl)c3)c(SC(C)C)s2)c(C(=O)N2CCOCC2)c1-c1cc(C(F)(F)F)cc(C(F)(F)F)c1 [Compound 139, (4-(3,5-bis(trifluoromethyl)phenyl)-1-(4-(3,4-dichlorophenyl)-5-(isopropylthio)thiazol-2-yl)-3-methyl-1H-pyrazol-5-yl)(morpholino)methanone]",4.60 to 5.00
18,"Cc1nn(-c2nc(-c3ccc(Cl)c(Cl)c3)c(SC(C)C)s2)c(C(=O)N(C)C)c1-c1cc(C(F)(F)F)cc(C(F)(F)F)c1 [Compound 140, 4-(3,5-bis(trifluoromethyl)phenyl)-1-(4-(3,4-dichlorophenyl)-5-(isopropylthio)thiazol-2-yl)-N,N,3-trimethyl-1H-pyrazole-5-carboxamide]",< 4.40
19,"Cc1nn(-c2nc(-c3ccc(Cl)c(Cl)c3)c(SC(C)C)s2)c(C(=O)N2CCC(CO)CC2)c1-c1cc(C(F)(F)F)cc(C(F)(F)F)c1 [Compound 141, (4-(3,5-bis(trifluoromethyl)phenyl)-1-(4-(3,4-dichlorophenyl)-5-(isopropylthio)thiazol-2-yl)-3-methyl-1H-pyrazol-5-yl)(4-(hydroxymethyl)piperidin-1-yl)methanone]",< 4.40
20,"Cc1nn(-c2nc(-c3ccc(Cl)c(Cl)c3)c(CC(C)C)s2)c(C(=O)O)c1-c1cnn(C)c1 [Compound 142, 1-(4-(3,4-dichlorophenyl)-5-isobutylthiazol-2-yl)-1′,3-dimethyl-1H,1′H-[4,4′-bipyrazole]-5-carboxylic Acid]",5.30 to 6.00
21,"Cc1cc(C)cc(-c2c(C)nn(-c3nc(-c4ccc(Cl)c(Cl)c4)c(SC(C)C)s3)c2C(=O)O)c1 [Compound 143, 1-(4-(3,4-dichlorophenyl)-5-(isopropylthio)thiazol-2-yl)-4-(3,5-dimethylphenyl)-3-methyl-1H-pyrazole-5-carboxylic Acid]",5.30 to 6.00
22,"Cc1nn(-c2nc(-c3ccc(Cl)c(Cl)c3)c(SC(C)C)s2)c(C(=O)O)c1-c1cc(Cl)cc(Cl)c1 [Compound 144, 4-(3,5-dichlorophenyl)-1-(4-(3,4-dichlorophenyl)-5-(isopropylthio)thiazol-2-yl)-3-methyl-1H-pyrazole-5-carboxylic Acid]",> 6.00
23,"COc1cc(Cl)cc(-c2c(C)nn(-c3nc(-c4ccc(Cl)c(Cl)c4)c(SC(C)C)s3)c2C(=O)O)c1 [Compound 145, 4-(3-chloro-5-methoxyphenyl)-1-(4-(3,4-dichlorophenyl)-5-(isopropylthio)thiazol-2-yl)-3-methyl-1H-pyrazole-5-carboxylic Acid]",5.30 to 6.00
24,"COc1cc(-c2c(C)nn(-c3nc(-c4ccc(Cl)c(Cl)c4)c(SC(C)C)s3)c2C(=O)O)cc(C(F)(F)F)c1 [Compound 146, 1-(4-(3,4-dichlorophenyl)-5-(isopropylthio)thiazol-2-yl)-4-(3-methoxy-5-(trifluoromethyl)phenyl)-3-methyl-1H-pyrazole-5-carboxylic Acid]",5.30 to 6.00
25,"Cc1cc(Cl)cc(-c2c(C)nn(-c3nc(-c4ccc(Cl)c(Cl)c4)c(SC(C)C)s3)c2C(=O)O)c1 [Compound 147, 4-(3-chloro-5-methylphenyl)-1-(4-(3,4-dichlorophenyl)-5-(isopropylthio)thiazol-2-yl)-3-methyl-1H-pyrazole-5-carboxylic Acid]",> 6.00
26,"Cc1nn(-c2nc(-c3ccc(Cl)c(Cl)c3)c(SC(C)C)s2)c(C(=O)NS(C)(=O)=O)c1-c1cc(C(F)(F)F)cc(C(F)(F)F)c1 [Compound 148, 4-(3,5-bis(trifluoromethyl)phenyl)-1-(4-(3,4-dichlorophenyl)-5-(isopropylthio)thiazol-2-yl)-3-methyl-N-(methylsulfonyl)-1H-pyrazole-5-carboxamide]",< 4.40
27,"Cc1nn(-c2nc(-c3ccc(Cl)c(Cl)c3)c(SC(C)C)s2)c(C(=O)O)c1-c1cnc2ccccn12 [Compound 149, 1-(4-(3,4-dichlorophenyl)-5-(isopropylthio)thiazol-2-yl)-4-(imidazo[1,2-a]pyridin-3-yl)-3-methyl-1H-pyrazole-5-carboxylic acid]",5.00 to 5.30
